# In ChEMBL document CHEMBL5137058, “Therapeutic Strategies to Target the Androgen Receptor” (J Med Chem, 2022):
# Legend:
# Androgen receptor [1] = target: T1, Androgen receptor (Homo sapiens, UniProt P10275); assay: Binding affinity to Androgen receptor (unknown origin); conditions: read-out: pIC50 (converted)
# T1 sequence (P10275 whole entry): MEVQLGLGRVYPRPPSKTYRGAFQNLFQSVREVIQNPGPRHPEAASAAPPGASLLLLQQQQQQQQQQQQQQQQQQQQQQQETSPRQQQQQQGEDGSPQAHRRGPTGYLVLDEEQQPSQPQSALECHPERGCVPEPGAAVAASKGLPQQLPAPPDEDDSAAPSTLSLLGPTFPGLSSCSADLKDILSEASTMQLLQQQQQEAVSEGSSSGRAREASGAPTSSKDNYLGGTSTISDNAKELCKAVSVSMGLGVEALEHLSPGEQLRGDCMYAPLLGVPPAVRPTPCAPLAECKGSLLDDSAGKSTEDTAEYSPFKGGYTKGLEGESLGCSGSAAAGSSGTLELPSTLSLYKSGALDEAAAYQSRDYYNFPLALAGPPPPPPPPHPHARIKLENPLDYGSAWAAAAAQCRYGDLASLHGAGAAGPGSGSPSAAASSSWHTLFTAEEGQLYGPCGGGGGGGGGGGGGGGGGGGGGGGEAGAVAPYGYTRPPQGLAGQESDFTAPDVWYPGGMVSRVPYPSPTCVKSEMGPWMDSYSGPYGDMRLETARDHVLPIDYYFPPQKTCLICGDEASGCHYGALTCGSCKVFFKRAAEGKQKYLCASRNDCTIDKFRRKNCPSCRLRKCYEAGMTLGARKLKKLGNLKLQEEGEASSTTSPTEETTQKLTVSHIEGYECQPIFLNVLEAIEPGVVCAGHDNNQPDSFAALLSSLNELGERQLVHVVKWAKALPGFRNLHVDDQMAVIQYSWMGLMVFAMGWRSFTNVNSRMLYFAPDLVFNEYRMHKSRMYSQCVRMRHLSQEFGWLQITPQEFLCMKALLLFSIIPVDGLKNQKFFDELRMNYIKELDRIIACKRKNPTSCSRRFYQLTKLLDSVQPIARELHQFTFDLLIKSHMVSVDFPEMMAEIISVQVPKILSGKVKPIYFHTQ
# [2] = Oral bioavailability in rat; format: ADME, organism-based; conditions: in vivo
# Androgen receptor [3] = target: T1, Androgen receptor; assay: Antagonist activity at Androgen receptor (unknown origin) assessed as downregulation of AR
# Rattus norvegicus [4] = assay: Anti-androgenic activity in rat assessed as decrease in seminal vesicle weight at 2.58 microM/Kg, po administered twice daily for 7 days; format: functional; parameters: scale not given: the % may be the effect or the level left; conditions: time 7 day, at 2.58 µmol/kg
# SC-3 = assay: Antiproliferative activity against mouse SC-3 cells; format: functional, cell-based
# CWR22R = assay: Antiproliferative activity against human 22Rv1 cells expressing Androgen receptor H874Y mutant; format: functional, cell-based
# PC-3 = assay: Antiproliferative activity against androgen-independent human PC-3 cells; format: functional, cell-based
# LNCaP [5] = assay: Antiproliferative activity against human LNCaP cells expressing Androgen receptor […] mutant; format: functional, cell-based
# Androgen receptor [6] = target: T1, Androgen receptor; assay: Displacement of [3H]DHT from Androgen receptor expressed in human MDA-MB-453 cells; format: cell-based
# Androgen receptor [7] = target: T1, Androgen receptor; assay: Antagonist activity at Androgen receptor in human MDA-MB-453 cells measured by SEAP reporter gene assay; format: cell-based
# Rattus norvegicus [8] = assay: Antagonist activity in mature male Sprague-Dawley rat assessed as decrease in seminal vesicle and prostate weight at 1 mg/kg, po administered once a day for 14 days; format: functional; parameters: scale not given: the % may be the effect or the level left; conditions: time 14 day
# Androgen receptor [9] = target: T1, Androgen receptor; assay: Antagonist activity at Androgen receptor in human LNCaP cells measured by SEAP reporter gene assay; format: cell-based
# Rattus norvegicus [10] = assay: Antagonist activity in mature male Sprague-Dawley rat assessed as decrease in seminal vesicle and prostate weight at 10 mg/kg, po administered once a day for 14 days; format: functional; parameters: scale not given: the % may be the effect or the level left; conditions: time 14 day
# Androgen receptor [11] = target: T1, Androgen receptor; format: cell-based, LNCaP C4-2
# Description: Antagonist activity at Androgen receptor in human LNCaP C4-2 cells transfected with PSA6.1-luc and pRL-TK measured by luciferase gene reporter assay
# LNCaP [12] = assay: Antitumor activity against human LNCaP cells xenografted in mouse assessed as decrease in PSA level at 100 mg/kg, sc; format: functional; parameters: scale not given: the % may be the effect or the level left
# Androgen receptor [13] = target: T1, Androgen receptor; assay: Agonist activity at human Androgen receptor expressed in African green monkey CV-1 cells measured by ARE-luciferase assay; format: cell-based
# Androgen receptor [14] = target: T1, Androgen receptor; assay: Activation of human Androgen receptor N/C (N-terminal/C-terminal) interaction
# Androgen receptor [15] = target: T1, Androgen receptor; assay: Antagonist activity at Androgen receptor in human LNCaP cells assessed as inhibition of Binding Function 3 (BF3) of AR measured by luciferase assay; format: cell-based
# Rattus norvegicus [16] = assay: Antagonist activity in mature male Sprague-Dawley rat assessed as decrease in seminal vesicle and prostate weight at 15 mg/kg, po administered once a day for 14 days; format: functional; parameters: scale not given: the % may be the effect or the level left; conditions: time 14 day
# [17] = Antitumor activity against bicalutamide-resistant human LNCaP-cxD2 cells xenografted in mouse at 40 mg/kg, po administered for 28 days; format: functional; conditions: time 28 day
# LNCaP [18] = assay: Antiproliferative activity against human LNCaP cells; format: functional, cell-based
# MR49F = assay: Antiproliferative activity against human MR49F cells; format: functional, cell-based
# Androgen receptor [19] = target: T1, Androgen receptor; assay: Antagonist activity at Androgen receptor in human LNCaP cells assessed as inhibition of Binding Function 3 (BF3) of AR measured by enhanced green fluorescent protein transcriptional (eGFPT) assay; format: cell-based
# Androgen receptor [20] = target: Androgen receptor (Homo sapiens, UniProt P10275, T878A); assay: Binding affinity to bicalutamide-resistant Androgen receptor T878A mutant (unknown origin)
# Chain of Androgen receptor (Homo sapiens, UniProt P10275, T878A) (P10275 whole entry T878A): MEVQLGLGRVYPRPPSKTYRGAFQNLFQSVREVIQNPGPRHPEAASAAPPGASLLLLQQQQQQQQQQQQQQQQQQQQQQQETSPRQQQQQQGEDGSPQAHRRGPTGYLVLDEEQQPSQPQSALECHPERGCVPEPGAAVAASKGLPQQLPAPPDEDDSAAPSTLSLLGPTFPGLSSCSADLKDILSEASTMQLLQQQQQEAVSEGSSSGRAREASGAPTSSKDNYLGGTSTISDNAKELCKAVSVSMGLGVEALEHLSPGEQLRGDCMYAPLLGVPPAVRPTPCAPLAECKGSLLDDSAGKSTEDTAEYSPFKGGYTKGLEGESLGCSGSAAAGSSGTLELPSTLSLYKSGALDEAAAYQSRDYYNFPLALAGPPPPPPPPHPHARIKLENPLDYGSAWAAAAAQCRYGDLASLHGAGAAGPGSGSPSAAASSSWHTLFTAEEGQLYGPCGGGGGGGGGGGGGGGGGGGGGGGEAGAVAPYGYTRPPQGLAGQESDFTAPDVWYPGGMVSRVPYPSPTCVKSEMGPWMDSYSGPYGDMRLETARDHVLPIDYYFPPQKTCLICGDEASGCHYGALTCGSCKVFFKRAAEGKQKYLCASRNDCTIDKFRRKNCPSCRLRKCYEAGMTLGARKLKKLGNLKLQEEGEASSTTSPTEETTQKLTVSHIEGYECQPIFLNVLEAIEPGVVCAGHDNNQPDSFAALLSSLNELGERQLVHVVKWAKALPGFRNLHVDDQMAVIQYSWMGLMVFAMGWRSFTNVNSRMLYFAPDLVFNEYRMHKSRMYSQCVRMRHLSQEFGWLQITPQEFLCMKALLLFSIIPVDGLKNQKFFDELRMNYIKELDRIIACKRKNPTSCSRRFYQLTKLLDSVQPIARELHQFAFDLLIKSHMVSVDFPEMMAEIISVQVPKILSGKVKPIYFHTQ
# LNCaP [21] = assay: Antiproliferative activity against human LNCaP cells expressing Androgen receptor T878A mutant; format: functional, cell-based
# Androgen receptor [22] = target: T1, Androgen receptor; assay: Binding affinity to wild-type Androgen receptor (unknown origin)
# LNCaP [23] = assay: Antiproliferative activity against human LNCaP cells expressing wild-type Androgen receptor; format: functional, cell-based
# [24] = Inhibition of human LNCaP cell growth at 10 uM measured after 24 hrs by AlamarBlue staining method; format: functional
# [25] = target: T2, Androgen receptor (Homo sapiens) (UniProt P10275); assay: Antagonist activity at Androgen receptor in human LNCaP cells assessed as inhibition of PSA expression at 10 uM measured by ELISA assay; format: cell-based; parameters: scale not given: the % may be the effect or the level left
# T2 sequence (whole entry): T1 sequence (P10275 whole entry)
# Androgen receptor [26] = target: T1, Androgen receptor; assay: Antagonist activity at wild-type Androgen receptor (unknown origin) expressed in African green monkey COS-7 cells measured as gene transcription level; format: cell-based
# [27] = Antitumor activity against bicalutamide-resistant human LNCaP-cxD2 cells xenografted in mouse at 50 mg/kg, po administered for 28 days; format: functional; conditions: time 28 day
# [28] = Oral bioavailability in dog; format: ADME, organism-based, Canis lupus familiaris; conditions: in vivo
structure (smiles),measurement,setting,value
N#Cc1ccc(CN2CCN(c3ccc4nnc(C(F)(F)F)n4n3)CC2)cc1,IC50,Androgen receptor [1],> 79400 nM
same,bioavailability,[2],100%
same,IC50,Androgen receptor [3],> 1580 nM
same,Activity,Rattus norvegicus [4],80%
COc1cccc(C(=O)Nc2ccc(Oc3ccc(O)cc3)c(C)c2)c1,IC50,SC-3,750 nM
same,IC50,CWR22R,220 nM
same,IC50,PC-3,> 10000 nM
same,IC50,LNCaP [5],43 nM
CCS(=O)(=O)N[C@@H]1C[C@@]2(C)O[C@]1(C)[C@@H]1C(=O)N(c3ccc(C#N)c(C(F)(F)F)c3)C(=O)[C@@H]12,Ki,Androgen receptor [6],1.7 nM
same,IC50,Androgen receptor [7],16 nM
same,Activity,Rattus norvegicus [8],42%
same,IC50,Androgen receptor [9],153 nM
same,Activity,Rattus norvegicus [10],74%
Cc1ccc(Cl)cc1N1CCN(C(=O)[C@@H]2C[C@@H]2c2ccc(F)cc2)CC1,EC50,Androgen receptor [11],1700 nM
CC1(C)[C@H](NC(=O)c2cnn(CCO)c2)C(C)(C)[C@H]1Oc1ccc(C#N)c(Cl)c1,Activity,LNCaP [12],>90%
N#Cc1ccc(-c2ccc(O)cc2F)[nH]1,EC50,Androgen receptor [13],0.34 nM
same,EC50,Androgen receptor [14],1210 nM
CCS(=O)(=O)Nc1cccc(-c2cc(=O)n(-c3ccc(Cl)c(Cl)c3)nc2C)c1,IC50,Androgen receptor [15],6260 nM
CNC(=O)[C@]12C(=O)N(c3ccc(C#N)c(C(F)(F)F)c3)C(=O)[C@H]1[C@H]1C[C@H](F)[C@@H]2C1,Ki,Androgen receptor [6],8 nM
same,Activity,Rattus norvegicus [16],35%
same,IC50,Androgen receptor [7],91 nM
Cc1nn(-c2ccc(C#N)c(Cl)c2)c(C)c1Cc1ccc(C(=O)NCC(C)(C)O)cc1,T/C,[17],23%
Brc1ncn(-c2csc(N3CCOCC3)n2)c1Br,IC50,LNCaP [18],< 500 nM
same,IC50,MR49F,< 500 nM
CC(C)C(NC(=O)c1cc2ccc(F)cc2[nH]1)c1ccco1 (stereo unspecified),IC50,Androgen receptor [19],430 nM
CNC(=O)c1ccc([C@]2(O)CCN(c3ccc(C#N)c(Cl)c3)[C@H]2C)cn1,IC50,Androgen receptor [20],1700 nM
same,IC50,LNCaP [21],1700 nM
same,IC50,Androgen receptor [22],830 nM
same,IC50,LNCaP [23],290 nM
COc1cc(/C=N/NC(=O)c2cc3c(ccc4ccccc43)o2)cc(OC)c1O,inhibition at 10 µM,[24],30%
same,Activity,[25],30%
Cc1nn(-c2ccc(C#N)c(Cl)c2)c(C)c1Oc1ccc(C(=O)NC(C)(C)C)cn1,IC50,Androgen receptor [26],1000 nM
same,T/C,[27],17%
same,IC50,Androgen receptor [22],430 nM
CC(=O)N1CCN(CCOc2ccc(C3CCN(C4=Nn5c(nnc5C(F)(F)F)CC4)CC3)cc2)CC1 [AZD3514],IC50,Androgen receptor [3],> 1780 nM
same,bioavailability,[28],75%
